According to ChEMBL document CHEMBL3639058, “Glycine compound” (2014):

How the values were obtained:
[1] = target: T1, Amine oxidase [copper-containing] 3 (Rattus norvegicus, UniProt O08590); assay: (§1) Inhibition Assay: A rat VAP-enzyme 1 (SSAO) activity was measured by a radiochemistry-enzymatic assay using 14C-benzylamine as an artificial substrate. An enzyme suspension prepared from CHO (Chinese Hamster Ovary) cells stably expressing a rat VAP-enzyme 1 (SSAO) was preincubated with the compound of the present invention in a 96-well microplate at room temperature for 30 minutes. Subsequently, the enzyme suspension was incubated with 14C-benzylamine (a final concentration of 1×10−5 mol/L) to a final volume of […] at 37° C. for 1 hour. The enzymatic reaction was stopped by the addition of 2 mol/L (50 μL) of citric acid. The oxidation products were extracted directly in a 200-μL toluene scintillator, and the radioactivity was measured with a scintillation spectrometer.
T1 sequence (O08590 whole entry): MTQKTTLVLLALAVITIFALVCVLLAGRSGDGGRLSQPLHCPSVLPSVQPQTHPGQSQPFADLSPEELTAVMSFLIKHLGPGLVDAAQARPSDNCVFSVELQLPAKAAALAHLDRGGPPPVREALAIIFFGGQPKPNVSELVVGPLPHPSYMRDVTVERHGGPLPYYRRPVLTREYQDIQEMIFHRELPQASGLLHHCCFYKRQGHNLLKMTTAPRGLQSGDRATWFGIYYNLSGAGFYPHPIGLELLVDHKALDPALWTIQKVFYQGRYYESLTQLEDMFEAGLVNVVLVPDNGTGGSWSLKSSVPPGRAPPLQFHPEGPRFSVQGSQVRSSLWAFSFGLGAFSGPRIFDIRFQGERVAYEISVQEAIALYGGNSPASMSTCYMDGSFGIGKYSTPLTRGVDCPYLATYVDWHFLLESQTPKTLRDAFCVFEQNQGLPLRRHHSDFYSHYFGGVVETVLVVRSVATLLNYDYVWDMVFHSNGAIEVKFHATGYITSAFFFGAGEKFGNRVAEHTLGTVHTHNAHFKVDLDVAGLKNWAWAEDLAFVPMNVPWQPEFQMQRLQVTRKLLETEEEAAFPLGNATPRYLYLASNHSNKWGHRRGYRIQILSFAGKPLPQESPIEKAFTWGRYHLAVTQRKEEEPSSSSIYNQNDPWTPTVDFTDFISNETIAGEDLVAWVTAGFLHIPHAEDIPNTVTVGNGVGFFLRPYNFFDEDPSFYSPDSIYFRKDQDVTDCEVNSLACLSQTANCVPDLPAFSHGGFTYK

[2] = target: T2, Amine oxidase [copper-containing] 3 (Homo sapiens, UniProt Q16853); assay: as §1, with “human VAP-1 enzyme” for “rat VAP-enzyme 1”
T2 sequence (Q16853 whole entry): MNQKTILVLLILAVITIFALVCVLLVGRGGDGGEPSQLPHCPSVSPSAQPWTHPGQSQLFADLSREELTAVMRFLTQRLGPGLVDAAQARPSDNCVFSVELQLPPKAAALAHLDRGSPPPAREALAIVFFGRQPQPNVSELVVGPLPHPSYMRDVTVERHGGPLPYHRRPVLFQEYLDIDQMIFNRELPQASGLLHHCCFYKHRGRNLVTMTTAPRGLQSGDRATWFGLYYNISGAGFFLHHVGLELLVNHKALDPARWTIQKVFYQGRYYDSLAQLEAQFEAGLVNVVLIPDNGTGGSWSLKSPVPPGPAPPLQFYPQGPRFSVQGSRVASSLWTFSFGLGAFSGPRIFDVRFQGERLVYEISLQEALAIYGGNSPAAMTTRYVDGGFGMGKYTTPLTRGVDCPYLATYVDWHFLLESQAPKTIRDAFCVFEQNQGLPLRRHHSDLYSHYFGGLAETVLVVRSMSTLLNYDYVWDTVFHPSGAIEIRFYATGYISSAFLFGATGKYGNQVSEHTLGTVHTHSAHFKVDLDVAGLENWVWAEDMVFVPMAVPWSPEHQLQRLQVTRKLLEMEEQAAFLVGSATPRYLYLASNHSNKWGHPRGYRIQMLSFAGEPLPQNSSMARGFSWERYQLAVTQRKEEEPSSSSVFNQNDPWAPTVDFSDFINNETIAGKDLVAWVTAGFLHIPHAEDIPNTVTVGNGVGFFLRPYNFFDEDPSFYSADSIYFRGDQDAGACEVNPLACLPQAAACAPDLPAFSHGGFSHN

Compound	IC50 [1] [nM]	IC50 [2] [nM]
Cc1cc(CCC(=O)O)cnc1N1CCN(c2ncc(-c3cccc(CN(C)C(=O)CN)c3)cn2)CC1	5.2	9.4
C[C@@H]1CN(c2ncc(-c3cccc(CN(C)C(=O)CN)c3)cn2)C[C@H](C)O1	61	–
